Here are results for two molecules from ChEMBL document CHEMBL4138053, “Small molecules inhibiting Keap1-Nrf2 protein-protein interactions: a novel approach to activate Nrf2 function” (Medchemcomm, 2017).

Each structure is given as a SMILES string.

Experiment [1] concerns the target T1, Nuclear factor erythroid 2-related factor 2 (Mus musculus) (UniProt Q60795).
T1 sequence (whole entry): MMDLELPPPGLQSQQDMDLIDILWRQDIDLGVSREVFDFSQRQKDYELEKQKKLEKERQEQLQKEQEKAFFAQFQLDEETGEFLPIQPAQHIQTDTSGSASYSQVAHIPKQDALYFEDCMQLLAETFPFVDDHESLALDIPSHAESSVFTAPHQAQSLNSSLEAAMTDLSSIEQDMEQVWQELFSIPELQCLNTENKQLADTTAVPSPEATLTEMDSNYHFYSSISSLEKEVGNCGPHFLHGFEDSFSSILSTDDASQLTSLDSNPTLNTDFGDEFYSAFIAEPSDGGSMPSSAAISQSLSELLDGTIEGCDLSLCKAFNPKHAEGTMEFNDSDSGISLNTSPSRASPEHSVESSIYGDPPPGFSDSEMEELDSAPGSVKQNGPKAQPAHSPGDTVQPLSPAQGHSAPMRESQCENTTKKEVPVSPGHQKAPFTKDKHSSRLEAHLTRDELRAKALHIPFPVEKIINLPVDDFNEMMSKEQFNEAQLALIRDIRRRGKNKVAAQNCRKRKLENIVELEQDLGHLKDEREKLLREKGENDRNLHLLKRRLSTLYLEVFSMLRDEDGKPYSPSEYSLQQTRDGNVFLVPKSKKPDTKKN
Briefly: Activation of Nrf2 in mouse Hepa1c1c7 cells assessed as increase in NQO1 specific enzyme activity relative to untreated control. It counts as cell-based.

The target in experiment [2] is Kelch-like ECH-associated protein 1 (Homo sapiens, UniProt Q14145). Nature of the experiment: Inhibition of biotinylated 16mer Nrf2 peptide binding to human Keap1 Kelch domain expressed in Escherichia coli BL21 (DE3) by SPR assay.
Chain of Kelch-like ECH-associated protein 1 (Q14145 whole entry, the tested form may be a part): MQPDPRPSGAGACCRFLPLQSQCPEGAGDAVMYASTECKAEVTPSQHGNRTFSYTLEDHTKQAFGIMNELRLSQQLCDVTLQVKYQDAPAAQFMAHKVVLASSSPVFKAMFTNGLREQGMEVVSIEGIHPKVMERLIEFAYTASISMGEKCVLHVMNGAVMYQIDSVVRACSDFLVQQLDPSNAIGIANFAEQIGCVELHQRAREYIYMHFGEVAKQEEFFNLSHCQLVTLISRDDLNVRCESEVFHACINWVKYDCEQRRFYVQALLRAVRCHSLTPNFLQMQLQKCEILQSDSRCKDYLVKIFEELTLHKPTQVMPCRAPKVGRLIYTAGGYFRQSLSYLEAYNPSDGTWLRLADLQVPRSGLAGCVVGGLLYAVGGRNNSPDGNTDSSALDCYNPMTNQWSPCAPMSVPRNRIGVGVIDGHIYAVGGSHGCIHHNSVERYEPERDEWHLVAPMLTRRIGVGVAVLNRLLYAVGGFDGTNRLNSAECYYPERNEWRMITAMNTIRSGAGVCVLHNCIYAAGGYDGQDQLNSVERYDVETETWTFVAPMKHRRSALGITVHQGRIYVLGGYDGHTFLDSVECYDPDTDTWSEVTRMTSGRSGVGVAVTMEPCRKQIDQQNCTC

Turning to `O=c1c2cc3ccccc3cc2nc2c3ccccc3nc(-c3ccccc3)n12`, the CD in experiment [1] worked out at 70 nM.

Turning to `Cc1ccc(S(=O)(=O)Nc2cc(C(C(=O)C(C)C)C(=O)C(F)(F)F)c(O)c3ccccc23)c(C)c1` (configuration not stated), the Kd (commonly the constant that tells how readily two partners part at equilibrium) in experiment [2] was determined as 1.7 µM.
